Test results: ChEMBL document CHEMBL1145319, “Modeling and synthesis of non-cyclic derivatives of GPI-1046 as potential FKBP ligands with neurotrophic properties” (Bioorg Med Chem Lett, 2006)

How the values were obtained:
[1] = biological target: T1, Peptidyl-prolyl cis-trans isomerase FKBP4 (Homo sapiens) (UniProt Q02790); test: Neurotrophic activity in chick dorsal root ganglion at 1 pM in presence of NGF after 48 hrs relative to control; type: functional, tissue-based; settings: Gallus gallus, target entry is the homologue from another species
T1 sequence (whole entry): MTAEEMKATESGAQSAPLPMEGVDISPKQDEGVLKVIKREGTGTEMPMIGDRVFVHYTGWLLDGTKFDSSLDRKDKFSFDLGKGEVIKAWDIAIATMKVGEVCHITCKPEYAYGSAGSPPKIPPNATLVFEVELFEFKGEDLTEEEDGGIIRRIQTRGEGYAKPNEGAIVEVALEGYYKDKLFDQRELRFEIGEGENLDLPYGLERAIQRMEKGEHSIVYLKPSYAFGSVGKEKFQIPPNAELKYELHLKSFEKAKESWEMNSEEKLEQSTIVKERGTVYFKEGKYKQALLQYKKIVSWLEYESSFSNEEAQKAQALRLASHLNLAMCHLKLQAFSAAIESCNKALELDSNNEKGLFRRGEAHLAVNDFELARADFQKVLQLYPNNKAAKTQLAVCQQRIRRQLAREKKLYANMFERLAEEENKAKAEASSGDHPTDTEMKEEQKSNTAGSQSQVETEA

[2] = biological target: T1, Peptidyl-prolyl cis-trans isomerase FKBP4 (Homo sapiens); test: Neurotrophic activity in chick dorsal root ganglion at 100 pM in presence of NGF after 48 hrs relative to control; type: functional, tissue-based; settings: Gallus gallus, target entry is the homologue from another species

| Activity [1] | Activity [2] | Compound |
| --- | --- | --- |
| 136% | 45% | CC(C)[C@H](NC(=O)C(=O)C(C)(C)C)C(=O)OCCCC1CCCCC1 |
| 85% | 93% | CC(C)[C@H](NC(=O)C(=O)C(C)(C)C)C(=O)OCCCOc1ccccc1 |
| 65% | 78% | CC(C)[C@H](NC(=O)C(=O)C(C)(C)C)C(=O)OCCCc1ccccc1 |
| 39% | 117% | CCC(C)(C)C(=O)C(=O)N[C@H](C(=O)OCCCc1ccccc1)C(C)C |
| 73% | 92% | CC(C)C[C@H](NC(=O)C(=O)C(C)(C)C)C(=O)OCCCc1ccccc1 |
|  | 120% | CCC(C)(C)C(=O)C(=O)N1CCC[C@H]1C(=O)OCCCc1cccnc1 |
| 108% | 93% | CC(C)C[C@H](NC(=O)C(=O)C(C)(C)C)C(=O)OCCCOc1ccccc1 |
| 123% | 207% | CCC(C)(C)C(=O)C(=O)N[C@H](C(=O)OCCc1ccccc1C(F)(F)F)C(C)C |
| 129% | 65% | CC(C)C[C@H](NC(=O)C(=O)C(C)(C)C)C(=O)OCCCc1cccnc1 |
| 123% | 101% | CC(C)C[C@H](NC(=O)C(=O)C(C)(C)C)C(=O)OCCCC1CCCCC1 |
| 115% | 136% | CC(C)[C@H](NC(=O)C(=O)C(C)(C)C)C(=O)OCCCc1cccnc1 |
| 100% | 120% | CCC(C)(C)C(=O)C(=O)N[C@H](C(=O)OCCCc1cccnc1)C(C)C |
